Test results as given in patent publication US20080287398A1, “COLD MENTHOL RECEPTOR-1 ANTAGONISTS” (priority 2007, published 2008).
Several values for one entry are separate records, joined by “and”; a condition that tells them apart may be missing. Equal entries are not always repeated.

Target: T1, canine TRPM8 (Canis lupus familiaris, UniProt Q1A7N1)
T1 construct: expressed in transfected cells
Assay: In vitro canine TRPM8 functional assay (Ca2+-sensitive dye, FLIPR/FDSS, icilin activation)
Type: cell-based
Settings: HEK293 cells expressing canine TRPM8, icilin activation; for % I (1 μM): 1 μM compound; for IC50: eight-point dose-response, read-out: IC50; for % I (0.5 μM): 0.5 μM compound
Experimental: The functional activity of compounds of Formula (I) was determined by measuring changes in intracellular calcium concentration using a Ca^2+-sensitive fluorescent dye. The changes in fluorescent signal were monitored by a fluorescence plate reader, either a FLIPR™ (Molecular Devices) or FDSS (Hamamatsu).
HEK293 cells stably expressing canine TRPM8 were routinely grown as monolayers in Dulbecco's minimum essential medium supplemented with 10% FBS, 1 mM L-glutamine, 100 units/mL penicillin, 100 ug/mL streptomycin and 400 μg/mL G418. Cells were maintained in 5% CO2 at 37° C. At 24 hrs prior to assay, cells were seeded in clear-base poly-D-lysine coated 384-well plates (BD Biosciences, NJ, USA) at a density of 5,000 cells per well in culture medium and grown overnight in 5% CO2 at 37° C. On assay day, growth media was removed and cells were loaded with Calcium 3 Dye (Molecular Devices) for 35 min at 37° C., under 5% CO2 and then for 25 min at room temperature and atmosphere. Subsequently, cells were tested for agonist-induced increases in intracellular Ca^2+ levels using FLIPR™ or FDSS. Cells were challenged with a compound of Formula (I) (at varying concentrations) and intracellular Ca^2+ was measured for 5 min prior to the addition of icilin to all wells to achieve a final concentration which produces approximately an 80% maximal response.
Basal FI was subtracted prior to normalizing data to percent of maximal response. Curves were generated using the average of quadruplicate wells for each data point, were analyzed using nonlinear regression of either sigmoidal dose response or sigmoidal dose response (variable slope). Finally, the EC50 and IC50 values were calculated with the best-fit dose curve determined by GraphPad Prism.

T1 sequence (Q1A7N1 1-1104): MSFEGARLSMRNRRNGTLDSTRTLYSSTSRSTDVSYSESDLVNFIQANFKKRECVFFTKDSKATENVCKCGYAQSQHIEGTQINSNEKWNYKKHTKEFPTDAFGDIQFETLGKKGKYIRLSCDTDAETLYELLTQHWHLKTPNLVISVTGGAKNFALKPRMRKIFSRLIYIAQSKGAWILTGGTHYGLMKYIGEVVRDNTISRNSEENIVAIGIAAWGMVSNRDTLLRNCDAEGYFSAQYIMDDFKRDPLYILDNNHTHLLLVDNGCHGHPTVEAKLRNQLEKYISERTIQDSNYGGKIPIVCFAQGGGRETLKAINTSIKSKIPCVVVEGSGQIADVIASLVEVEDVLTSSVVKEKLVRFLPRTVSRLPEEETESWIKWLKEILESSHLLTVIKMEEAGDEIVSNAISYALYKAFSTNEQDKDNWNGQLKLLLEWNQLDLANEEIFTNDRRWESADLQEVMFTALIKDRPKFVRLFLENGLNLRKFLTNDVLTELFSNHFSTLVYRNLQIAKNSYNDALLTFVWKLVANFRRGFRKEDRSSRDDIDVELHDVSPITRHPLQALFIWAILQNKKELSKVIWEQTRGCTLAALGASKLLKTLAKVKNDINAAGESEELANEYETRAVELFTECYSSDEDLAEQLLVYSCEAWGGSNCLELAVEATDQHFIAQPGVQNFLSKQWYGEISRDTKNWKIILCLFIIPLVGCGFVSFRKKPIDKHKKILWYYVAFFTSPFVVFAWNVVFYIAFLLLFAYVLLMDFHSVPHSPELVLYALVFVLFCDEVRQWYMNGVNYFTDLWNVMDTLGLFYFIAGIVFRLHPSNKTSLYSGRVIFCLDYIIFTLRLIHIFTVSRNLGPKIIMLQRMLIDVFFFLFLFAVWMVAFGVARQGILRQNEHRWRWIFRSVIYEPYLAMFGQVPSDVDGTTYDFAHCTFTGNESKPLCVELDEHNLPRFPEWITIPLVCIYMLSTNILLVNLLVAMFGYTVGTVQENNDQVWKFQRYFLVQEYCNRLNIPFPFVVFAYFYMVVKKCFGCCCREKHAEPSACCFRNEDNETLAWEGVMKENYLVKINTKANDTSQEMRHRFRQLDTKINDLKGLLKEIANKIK

SMILES | % I (1 μM) | % I (5 μM) (5 μM compound) | IC50 | % I (0.5 μM)
CCOP(=O)(Cc1cc2ccccc2s1)OCc1ccccc1Cl (racemic) [Cpd 105] | 48% | 100% | 1010 nM | –
CCOP(=O)(OCC)C(Cc1cccc(Cl)c1F)c1sc2ccccc2c1Br (racemic) [Cpd 143] | – | – | 67 nM | 101%
CCOP(=O)(OCC)C(Cc1ccc(C(F)(F)F)c(F)c1)c1sc2ccccc2c1Br (racemic) [Cpd 144] | – | – | 58 nM | 101%
CCOP(=O)(OCC)C(Cc1cccc(OC(F)(F)F)c1)c1sc2ccccc2c1Br (racemic) [Cpd 145] | – | – | 119 nM and 116 nM | 103% and 102%
CCOP(=O)(OCC)C(Cc1cc(C(F)(F)F)ccc1F)c1sc2ccccc2c1Br (racemic) [Cpd 146] | – | – | 100 nM | 103%
CCOP(=O)(OCC)C(Cc1ccccc1Cl)c1sc2ccccc2c1Br (racemic) [Cpd 147] | – | – | 125 nM | 103%
CCOP(=O)(OCC)C(Cc1cc(C(F)(F)F)ccc1Cl)c1sc2ccccc2c1Br (racemic) [Cpd 148] | – | – | 172 nM | 103%
CCOP(=O)(OCC)C(Cc1ccc(OC(F)(F)F)c(Cl)c1)c1sc2ccccc2c1Br (racemic) [Cpd 149] | – | – | 60 nM | 103%
CCOP(=O)(OCC)C(Cc1ccc(C(F)(F)F)cc1F)c1sc2ccccc2c1Br (racemic) [Cpd 150] | – | – | 90 nM | 103%
CCOP(=O)(OCC)C(Cc1cccc(C(F)(F)F)c1Cl)c1sc2ccccc2c1Br (racemic) [Cpd 151] | – | – | 120 nM | 103%
CCOP(=O)(OCC)C(Cc1ccc(OC)c(C(F)(F)F)c1)c1sc2ccccc2c1Br (racemic) [Cpd 152] | – | – | 54 nM and 50 nM | 102% and 92%
CCOP(=O)(OCC)C(Cc1ccc(SC(F)(F)F)cc1)c1sc2ccccc2c1Br (racemic) [Cpd 153] | – | – | 43 nM | 103%
CCOP(=O)(OCC)C(Cc1ccc(C(F)(F)F)cc1)c1sc2ccccc2c1Br (racemic) [Cpd 154] | – | – | 27 nM | 103%
COc1cc(CC(c2sc3ccccc3c2Br)P(=O)(OC(C)C)OC(C)C)ccc1F (racemic) [Cpd 157] | – | – | – | 103% and 98%
CCOP(=O)(OCC)C(Cc1ccc(OC)c(F)c1)c1sc2ccccc2c1Br (racemic) [Cpd 158] | – | – | 59 nM | 101%
COc1ccc(CC(c2sc3ccccc3c2Br)P(=O)(OC(C)C)OC(C)C)cc1F (racemic) [Cpd 159] | – | – | 36 nM | 103%
CCOP(=O)(OCC)C(Cc1c(F)c(F)c(OC)c(F)c1F)c1sc2ccccc2c1Br (racemic) [Cpd 160] | – | – | 60 nM | 87%
COc1c(F)c(F)c(CC(c2sc3ccccc3c2Br)P(=O)(OC(C)C)OC(C)C)c(F)c1F (racemic) [Cpd 161] | – | – | 19 nM | 103%
CCOP(=O)(OCC)C(Cc1cccc(OC)c1F)c1sc2ccccc2c1Br (racemic) [Cpd 162] | – | – | 32 nM | 103%
COc1ccc(CC(c2sc3ccccc3c2Br)P(=O)(OC(C)C)OC(C)C)c(F)c1 (racemic) [Cpd 163] | – | – | 20 nM | 103%
CCOP(=O)(OCC)C(Cc1cc(OC)c(Cl)cc1F)c1sc2ccccc2c1Br (racemic) [Cpd 164] | – | – | 82 nM | 94%
COc1cc(CC(c2sc3ccccc3c2Br)P(=O)(OC(C)C)OC(C)C)c(F)cc1Cl (racemic) [Cpd 165] | – | – | 86 nM | 102%
CC(C)OP(=O)(OC(C)C)C(Cc1cccc(Cl)c1)c1sc2ccccc2c1Br (racemic) [Cpd 166] | 103% | – | 18 nM and 14 nM | 102%
CC(C)OP(=O)(OC(C)C)C(Cc1ccc(Cl)c(C(F)(F)F)c1)c1sc2ccccc2c1Cl (racemic) [Cpd 167] | – | – | 97 nM | 104%
CC(C)OP(=O)(OC(C)C)C(Cc1cccc(C(F)(F)F)c1F)c1sc2ccccc2c1Cl (racemic) [Cpd 168] | – | – | 76 nM | 104%
CC(C)OP(=O)(OC(C)C)C(Cc1cc(F)cc(C(F)(F)F)c1)c1sc2ccccc2c1Cl (racemic) [Cpd 169] | – | – | 96 nM | 104%
CC(C)OP(=O)(OC(C)C)C(Cc1cccc(C(F)(F)F)c1)c1sc2ccccc2c1Cl (racemic) [Cpd 170] | – | – | 73 nM | 103%

SMILES | % I (1 μM) | % I (5 μM) (5 μM compound) | IC50 | % I (0.5 μM)
CC(C)OP(=O)(OC(C)C)C(Cc1cc(C(F)(F)F)cc(C(F)(F)F)c1)c1sc2ccccc2c1Cl (racemic) [Cpd 171] | – | – | 221 nM | 95%
CC(C)OP(=O)(OC(C)C)C(Cc1cc(C(F)(F)F)ccc1F)c1sc2ccccc2c1Cl (racemic) [Cpd 172] | – | – | 105 nM | 104%
CC(C)OP(=O)(OC(C)C)C(Cc1ccccc1C(F)(F)F)c1sc2ccccc2c1Cl (racemic) [Cpd 173] | – | – | 140 nM | 103%
CC(C)OP(=O)(OC(C)C)C(Cc1ccc(F)c(F)c1)c1oc2cccc(F)c2c1Br (racemic) [Cpd 205] | 101% | – | 50 nM | –
CCOP(=O)(OCC)C(Cc1ccc(F)c(F)c1)c1oc2cccc(F)c2c1Br (racemic) [Cpd 206] | 100% | – | 98 nM | –
CC(C)OP(=O)(OC(C)C)C(Cc1ccc(F)c(F)c1)c1sc2ncccc2c1Br (racemic) [Cpd 207] | – | – | 51 nM | 99%
CCOP(=O)(OCC)C(Cc1ccc(F)c(F)c1)c1sc2ccccc2c1-c1ccsc1 (racemic) [Cpd 208] | – | – | 104 nM | 104%
COCCOCCOP(=O)(OCCOCCOC)C(Cc1ccc(F)c(F)c1)c1sc2ccccc2c1Br (racemic) [Cpd 210] | – | – | – | 62%
CC(C)CCOP(=O)(OCCC(C)C)C(Cc1ccc(F)c(F)c1)c1sc2ccccc2c1Br (racemic) [Cpd 211] | – | – | 95 nM | 97%
CC(=O)OCCOP(=O)(OCCOC(C)=O)C(Cc1ccc(F)c(F)c1)c1sc2ccccc2c1Br (racemic) [Cpd 213] | – | – | 202 nM | 100%
CCOP(=O)(OCC)C(Cc1ccc(F)c(F)c1)c1sc2ccccc2c1-c1ccccc1O (racemic) [Cpd 215] | – | – | 85 nM | 101%
CCOP(=O)(OCC)C(Cc1ccc(F)c(F)c1)c1sc2ccccc2c1-c1ccccc1F (racemic) [Cpd 216] | – | – | 126 nM | 100%
CCOP(=O)(OCC)C(Cc1ccc(F)c(F)c1)c1sc2ccccc2c1-c1cccc(C(N)=O)c1 (racemic) [Cpd 218] | – | – | 483 nM | 79%
CCOP(=O)(OCC)C(Cc1ccc(F)c(F)c1)c1sc2ccccc2c1-c1cccc(C(=O)OC)c1 (racemic) [Cpd 219] | – | – | – | 68%
CCOP(=O)(OCC)C(Cc1ccc(F)c(F)c1)c1sc2ccccc2c1-c1ccc(F)cc1 (racemic) [Cpd 220] | – | – | 207 nM | 101%
CC(C)OP(=O)(OC(C)C)C(Cc1ccc(F)c(C(F)(F)F)c1)c1sc2cccc(F)c2c1Br (racemic) [Cpd 222] | – | – | 33 nM | 103%
CCOP(=O)(OCC)C(Cc1ccc(F)c(C(F)(F)F)c1)c1sc2cccc(F)c2c1Br (racemic) [Cpd 223] | – | – | 52 nM | 102%
CCOP(=O)(OCC)C(Cc1ccc(F)c(F)c1)c1sc2cccc(F)c2c1Br (racemic) [Cpd 224] | – | – | 44 nM | 102%
CCOP(=O)(OCC)C(Cc1ccc(O)c(F)c1)c1sc2ccccc2c1Br (racemic) [Cpd 226] | – | – | – | 34%
CC(C)OP(=O)(OC(C)C)C(Cc1ccc(O)c(F)c1)c1sc2ccccc2c1Br (racemic) [Cpd 227] | – | – | – | 52%
CCOP(=O)(OCC)C(Cc1c(F)c(F)c(O)c(F)c1F)c1sc2ccccc2c1Br (racemic) [Cpd 228] | – | – | 129 nM | 94%
CC(C)OP(=O)(OC(C)C)C(Cc1c(F)c(F)c(O)c(F)c1F)c1sc2ccccc2c1Br (racemic) [Cpd 229] | – | – | 156 nM | 95%
CC(C)OP(=O)(OC(C)C)C(Cc1cccc(O)c1F)c1sc2ccccc2c1Br (racemic) [Cpd 230] | – | – | 10 nM | 97%
CCOP(=O)(OCC)C(Cc1cc(O)c(Cl)cc1F)c1sc2ccccc2c1Br (racemic) [Cpd 231] | – | – | 122 nM | 98%
CC(C)OP(=O)(OC(C)C)C(Cc1cc(O)c(Cl)cc1F)c1sc2ccccc2c1Br (racemic) [Cpd 232] | – | – | 63 nM | 99%
CCOP(=O)(OCC)C(Cc1ccc(O)c(C(F)(F)F)c1)c1sc2ccccc2c1Br (racemic) [Cpd 233] | – | – | – | 70%
CCOP(=O)(OCC)C(Cc1ccc(F)cc1C(F)(F)F)c1sc2ccccc2c1Br (racemic) [Cpd 245] | – | – | 124 nM | 103%
